According to patent publication US20240166755A1, “CHIMERIC ANTIGEN RECEPTORS TARGETING CANCER” (University of Southern California, priority 2016, published 2024):

Assays:
[1] = test system: Blinatumomab induced cell death of RAJI-GLuc cells mediated by T cells; experiment: Blinatumomab-induced, T cell-mediated death of RAJI-GLuc cells and its block by drugs (GLuc assay); assay type: cell-based, human
[2] = test system: CAR-T cells induced death of RAJI-GLuc cells; experiment: Effect of drugs on CAR-T cell-induced death of RAJI-GLuc cells (GLuc assay); assay type: cell-based, human; details: for CAR-T cell-induced death of RAJI-pLenti-GLuc cells / CAR-T cells induced death of RAJI-pLenti-GLuc cells / CAR-T cells induced cell death: CD19Bu12 CAR-T cells; for CAR-T cell-induced death of RAJI-pLenti-GLuc cells: versus media alone; for CAR-T cell induced cell death: FMC63 and CD19MM CAR-T cells, Imatinib 50 nM and 500 nM, Nilotinib 10 nM and 100 nM, Axitinib
[3] = test system: target cells expressing their respective target antigen; experiment: Jurkat-NFAT-GFP assay, co-culture with target cells expressing the respective target antigen (Table 28); details: Jurkat-NFAT-GFP cells expressing the CAR; cell line(s) giving greater % GFP positive cells than parental
Lck = Lck (Homo sapiens, UniProt P06239); details: Lck versus Fyn; cited from earlier work
Lck, sequence (P06239 whole entry, species assumed): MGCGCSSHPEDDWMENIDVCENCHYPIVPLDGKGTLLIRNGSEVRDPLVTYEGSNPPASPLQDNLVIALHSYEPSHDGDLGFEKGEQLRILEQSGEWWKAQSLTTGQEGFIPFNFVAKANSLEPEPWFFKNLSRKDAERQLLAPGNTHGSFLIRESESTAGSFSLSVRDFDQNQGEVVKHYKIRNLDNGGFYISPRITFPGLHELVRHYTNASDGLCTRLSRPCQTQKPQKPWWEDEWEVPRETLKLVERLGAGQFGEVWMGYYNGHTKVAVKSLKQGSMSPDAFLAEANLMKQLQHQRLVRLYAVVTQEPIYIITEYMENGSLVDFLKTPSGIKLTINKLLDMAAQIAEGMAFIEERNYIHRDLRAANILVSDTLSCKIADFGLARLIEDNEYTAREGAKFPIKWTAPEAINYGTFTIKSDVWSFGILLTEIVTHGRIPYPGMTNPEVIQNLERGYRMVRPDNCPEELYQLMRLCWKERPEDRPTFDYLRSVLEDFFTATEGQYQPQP

NF-κB = NF-κB luciferase reporter assay in 293FT cells; assay type: cell-based; details: upon treatment with AP20187, versus untreated
Experimental: NF-κB reporter assay was carried out essentially as described (Chaudhary et al., Oncogene 18:5738-46, 1999). The indicated constructs were transiently transfected in 293FT cells along with a luciferase reporter construct driven by 4 copies of NF-κB binding site and a RSV-LacZ reporter construct. Cells were left untreated or treated with AP20187, which dimerizes the FKBP domains, resulting in activation of K13 signaling. Approximately 24 hr later, cells were lysed and NF-κB-Luc and LacZ activities measured in cell lysates. NF-κB-Luc activity was normalized relative to LacZ activity to control for difference in transfection efficiency. […] Thus, activity of K13 and Tax can be controlled by fusion with FKBP and subsequent administration of AP20187 when they are expressed alone or as part of CAR constructs.
It would be useful to have novel mutants of K13 with varying levels of NF-κB activity for the purpose of adoptive cellular therapy and other applications. Site-directed mutagenesis was conducted using Quickchange site-directed kit (Stratagene) to generate several point mutants of K13 in which the different amino acids of K13 (SEQ ID NO:2629) were mutated. For example, in the mutant K19A the amino acid Lysine at position 19 is mutated to alanine. […] Approximately 24 hr later, cells were lysed and NF-κB-Luc and LacZ activities measured in cell lysates. […]

[4] = at the indicated concentrations

## COc1cc(Nc2ncc3c(n2)-c2ccc(Cl)cc2C(c2c(F)cccc2OC)=NC3)ccc1C(=O)O [Alisertib]
[1]; [4]
  Blinatumomab induced cell death mediated by T cells: only a minimal effect
[2]
  CAR-T cell-induced death of RAJI-pLenti-GLuc cells: mild to modest inhibition

## CD8SP-GD3-KM-641-(vL-vH)-Myc-z-P2A-K13-Flag-T2A-PAC(051016-D04)[SEQ ID NO: 1065]
[3]
  Positive Cell Line on co-culture assay: MEL624

## Cc1ccc(NC(=O)c2ccc(CN3CCN(C)CC3)cc2)cc1Nc1nccc(-c2cccnc2)n1 [Imatinib]
[2]; CD19MM CAR-T cells, E:T 5:1, 4 h, indicated concentrations
  CAR-induced cell death: no effect
[2]
  CAR-T cell induced cell death: no effect

## COc1cc(Nc2ncc(F)c(Nc3ccc4c(n3)N(COP(=O)(O)O)C(=O)C(C)(C)O4)n2)cc(OC)c1OC [Fosatamatinib]
[1]; [4]
  Blinatumomab induced cell death mediated by T cells: only a minimal effect
[2]
  CAR-T cell-induced death of RAJI-pLenti-GLuc cells: mild to modest inhibition

## COc1cc(-c2nn([C@H]3CC[C@H](N4CCN(C(C)=O)CC4)CC3)c3ncnc(N)c23)ccc1NC(=O)c1cc2ccccc2n1C [A-770041]
[1]; 100 nM
  cell death induced by combination of Blinatumomab with T cells: partially blocked
[1]; 200 nM
  cell death induced by combination of Blinatumomab with T cells: complete inhibition
[2]; 100 nM and 200 nM
  CAR-T cells induced death of RAJI-pLenti-GLuc cells: near complete inhibition
Lck
  selective against Fyn: 300 fold

## Cc1cn(-c2cc(NC(=O)c3ccc(C)c(Nc4nccc(-c5cccnc5)n4)c3)cc(C(F)(F)F)c2)cn1 [Nilotinib]
[2]
  CAR-T cell induced cell death: no effect

## CNC(=O)c1ccccc1Sc1ccc2c(/C=C/c3ccccn3)n[nH]c2c1 [Axitinib]
[2]
  CAR-T cell induced cell death: no effect

## CN1CCN(CCOc2cc(OC3CCOCC3)c3c(Nc4c(Cl)ccc5c4OCO5)ncnc3c2)CC1 [Saracatinib]
[2]; concentration not given
  CAR-T cells induced death of RAJI-pLenti-GLuc cells: no significant effect

## CD8SP-CD22-m971-(vL-vH)-Myc-BBz-T2A-PAC(091515-A02)[SEQ ID NO: 1519]
[3]
  Positive Cell Line on co-culture assay: RAJI, NALM6

## FKBPX2-K13: K13 in fusion with two copies of FKBP dimerization domain
NF-κB
  K13- and HTLV2-Tax RS mutant-induced NF-κB-Luc activity: increase

## CC(C)c1cc(C(C)C)c(CC(=O)NS(=O)(=O)Oc2c(C(C)C)cccc2C(C)C)c(C(C)C)c1 [Avasimibe]
[1]; 1 μM
  Blinatumomab induced cell death mediated by T cells: blocked
[2]; 100 nM
  CAR-T cells induced cell death: no significant effect
[2]; 1 μM
  CAR-T cells induced cell death: completely blocked
